Compound `CN1CCC(c2cc(-c3ccncc3)c(-c3cccc(C(F)(F)F)c3)nn2)CC1` [Example 11, 3-(3-trifluoromethylphenyl)-4(pyridine-4-yl)-6-(N-methylpiperidin-4-yl)pyridazine] returned a melting point of 188 to 189 °C. `FC(F)(F)c1cccc(-c2cc(C3CCNCC3)nnc2-c2ccncc2)c1` [Example 28, 3-(pyridine-4-yl)-4-(3-trifluoromethylphenyl)-6-(piperidin-4-yl)pyridazine]: the melting point lay within 148 to 150 °C.

The values above are taken from US6350744B1, “Compounds having cytokine inhibitory activity” (Merck & Co., Inc., priority 1998, dated 2002).
